# According to patent US20160346255A1, “METHODS, AGENTS AND COMPOSITIONS FOR TREATMENT OF INFLAMMATORY CONDITIONS” (Betanien Hospital, priority 2014, published 2016):
# Non-standard residues stand in square brackets, D forms with d. Residues, ends and D or L forms follow the SMILES beside them. *: point of attachment. dPhe(4-NHCONH2) = NC(=O)Nc1ccc(C[C@@H](N)C(=O)O)cc1; Dihydroorotyl(S) = O=C1C[C@@H](C(=O)*)NC(=O)N1; dPhe(4-Cl) = N[C@H](Cc1ccc(Cl)cc1)C(=O)O; Phe(4-NH2) = Nc1ccc(C[C@H](N)C(=O)O)cc1; d2Nal = N[C@H](Cc1ccc2ccccc2c1)C(=O)O; Lys(iPr) = CC(C)NCCCC[C@H](N)C(=O)O; d3Pal = N[C@H](Cc1cccnc1)C(=O)O
# Tests used:
# Assay type in all cases: in vivo, human
# [1] = tested on: Patient with Rheumatoid Arthritis; experiment: Rheumatoid arthritis patient treated with degarelix 40 mg weekly; conditions: 240 mg loading
# Description: • person with seropositive rheumatoid arthritis with disease duration of 22 years. • Fulfilled ACR 2010 classification criteria for rheumatoid arthritis.
# • Had tried most therapies available (for example: Humira, Remicade, Enbrel, Actemra, several disease modifying anti-rheumatic drugs), previously without effect or intolerable side effects. • Offered experimental GnRH antagonist therapy, degarelix 40 mg every week with 240 mg loading dose at baseline.
# Patient with Psoriasis = experiment: Psoriasis patient treated with degarelix
# Description: The PASI score is a standardized score for assessing disease activity in psoriasis.
# He therefore received testosterone supplementation in the form of Testogel containing 50 mg of testosterone, first daily; thereafter every 3 days to maintain testosterone levels within the normal range.
# One trial examined 15 patients with psoriasis who were taking lithium.
# peripheral GnRH = experiment: Peripheral GnRH levels by ELISA in patients on degarelix
# Description: (§1) We analysed peripheral GnRH levels in patients with various autoimmune diseases using ELISA. […] Due to the nature of ELISA assays, the concentration in pg/mL should not necessarily be regarded as absolute, and may be interpreted as relative. RA Patient A Baseline GnRH 394 pg/mL, after 3 months of degarelix with loading dose 240 mg, and maintenance doses 80 mg every 2 weeks, GnRH 359 pg/mL. […] During that month/6 weeks […] general function had improved, for example MSIS-29 had reduced from 121 to 110. […] During that period their PASI score reduced by more than 20%. Healthy control 1 baseline GnRH 162 pg/mL, healthy control 2 baseline GnRH 120 pg/mL, healthy control 3 baseline GnRH 153 pg/mL.
# [2] = as above; conditions: 3 months
# Description: as §1
# [3] = tested on: Patient with Inflammatory Bowel Disease; experiment: Inflammatory bowel disease (colitis) patient treated with degarelix
# Description: • person, diagnosed with colitis • Inflammatory bowel disease, colitis verified on colonic biopsy sample. Patients with inflammatory colitis usually have a higher incidence of autoimmune diseases. This patient also had ankylosing spondylitis. • September 2014 received first dose of degarelix 240 mg s.c. • Received degarelix 80 mg s.c. approximately every two weeks thereafter. • The inflammatory bowel diseases (IBDs), Crohn's disease and ulcerative colitis, are chronic relapsing, remitting disorders. The assessment of disease activity presents challenges to clinicians. Fecal biomarkers, such as fecal calprotectin, are a non-invasive method which can be used to aid managing clinicians. Calprotectin is released extracellularly in times of cell stress or damage and can be detected within feces and thus be used as a sensitive marker of intestinal inflammation. […] Fecal calprotectin levels are elevated in patients with both Crohn's disease and ulcerative colitis (1-2). There have been several studies looking at the use of fecal calprotectin to predict or monitor response to treatment. • In a study looking at 11 patients with relapsing IBD, fecal calprotectin was analysed at inclusion and after 8 weeks of treatment. Treatment was individualized medical therapy. A normalized fecal calprotectin concentration at 8 weeks predicted a complete response in 100% of patients (3), corresponding to endoscopic mucosal healing (4). It has been shown that in patients with steroid induced clinical remission fecal calprotectin levels can remain elevated (5-6). […] A level of <50 mg/kg is considered normal or remission for IBD. • There is no gold standard index in the measurement of colitis disease activity in clinical trials. Due to the invasive nature of endoscopies, the Mayo non-invasive colitis assessment of response score can be used to assess treatment effect of IBD in clinical trials (9-11). […] Both the partial Mayo and total Mayo score are used to assess disease activity in clinical trials (13). The partial Mayo score also had good discriminatory value between subjects in remission and those with active disease (14). A clinical response has been defined as a 3 point or greater change in the partial Mayo score (15).
# [4] = tested on: Patient with Rheumatoid Arthritis; experiment: RA patient treated with degarelix and methotrexate
# Description: • person with seropositive rheumatoid arthritis with disease duration of 16 years • Fulfilled ACR 2010 classification criteria for rheumatoid arthritis
# • Previously failed 3 biologics (etanercept, Actemra, and rituximab). Last tried rituximab November 2013, but increasing disease activity and blood tests (CRP and ESR) during the months thereafter until start of degarelix 16.06.14. Concomitantly used stable methotrexate 10 mg weekly since 1999. • Started degarelix 240 mg induction dose 16.06.14, with 80 mg every 2 weeks thereafter. • Disease activity reduced and they achieved an ACR60 response by 29.09.14 under the introduction of degarelix and stable concomitant methotrexate and prednisolone. • 03.10.14 the patient's pulmonary physician stopped methotrexate treatment due to pleural thickening, and CT imaging supporting lung fibrosis which was suspected to be due to methotrexate. The patient had dyspnea which resolved once methotrexate was stopped. • By 21.11.14, the patients disease activity score had increased from 5.1 (29.9.14) to 5.7 (21.11.14), due to the discontinuation of methotrexate.
# [5] = tested on: Patient with Spondyloarthritis; experiment: Spondyloarthritis patient treated with degarelix; conditions: for BASDAI: baseline 3.8
# Description: • person, diagnosed with spondyloarthritis • Fulfilled the ASAS criteria for axial radiographic spondyloarthritis. • October 2014 received first dose of degarelix, 240 mg s.c. • Received degarelix 80 mg s.c. every two weeks thereafter. Disease activity in ankylosing spondylitis/spondyloarthritis is measured by the BASDAI (Bath Ankylosing Spondylitis Disease Activity Index (1)), has been extensively validated in clinical trials (2-3), and is one of the most commonly used outcome measures in clinical trials. This is a composite index that evaluates fatigue, axial and peripheral pain, stiffness and enthesopathy. Their BASDAI was at 3.8 at baseline. In October 2014 they received their first dose of degarelix 240 mg s.c. By 2 weeks, their BASDAI had reduced to 2.9, and by 8 weeks it had reduced to 1.3, remission. At 4 months, their BASDAI continues to be low at 1.5. • Response to therapy in clinical practice is defined as improvement of 2 units or 50% on a 0-10 scale of the BASDAI, and expert opinion that the treatment should be continued. Their reduction by 4 months was 2.3. We shall continue treatment.
smiles,measurement,setting,value
CC(=O)N[C@H](Cc1ccc2ccccc2c1)C(=O)N[C@H](Cc1ccc(Cl)cc1)C(=O)N[C@H](Cc1cccnc1)C(=O)N[C@@H](CO)C(=O)N[C@@H](Cc1ccc(NC(=O)[C@@H]2CC(=O)NC(=O)N2)cc1)C(=O)N[C@H](Cc1ccc(NC(N)=O)cc1)C(=O)N[C@@H](CC(C)C)C(=O)N[C@@H](CCCCNC(C)C)C(=O)N1CCC[C@H]1C(=O)N[C@H](C)C(N)=O [degarelix] (Ac-[d2Nal][dPhe(4-Cl)][d3Pal]S[Phe(4-NH2)](Dihydroorotyl(S))[dPhe(4-NHCONH2)]L[Lys(iPr)]P[dA]-NH2),CRP,[1]; from 87 mg/L,67 mg/L
same,ESR,[1]; from 62 mm,38 mm
same,Disease activity score (DAS),"[1]; at 2 weeks, from 7.3",6.7
same,Testosterone (normal 8-35 nmol/L),"Patient with Psoriasis; after the first week, before 12 nmol/L",< 1 nmol/L
same,Improvement in psoriasis,Patient with Psoriasis; at 6 months,stable
same,PASI absolute reduction,Patient with Psoriasis; by 8 weeks,12.3 points
same,PASI reduction,Patient with Psoriasis; by 8 weeks,23%
same,PASI score,"Patient with Psoriasis; by 8 weeks, baseline 53.6",41.3
same,Testosterone (normal 8-35 nmol/L),"Patient with Psoriasis; week 8, under testosterone substitution (Testogel)",9 nmol/L
same,Peripheral GnRH (ELISA),"peripheral GnRH; Multiple Sclerosis Patient B, after 1 month, baseline 318",210 pg/mL
same,Peripheral GnRH (ELISA),"peripheral GnRH; Psoriasis Patient C, after 3 months, baseline 300",274 pg/mL
same,Peripheral GnRH (ELISA),"peripheral GnRH; RA Patient A, after 3 months, baseline 394",359 pg/mL
same,PASI score reduction,[2]; Psoriasis Patient C,more than 20%
same,CRP,"[2]; RA Patient A, from 142 mg/L",54 mg/L
same,DAS score,"[2]; RA Patient A, from 8.6",4.2
same,Fecal calprotectin (<50 normal),"[3]; 2 Oct. 2014, normal","48, normal mg/kg"
same,Fecal calprotectin (<50 normal),"[3]; 10 Jan. 2015, normal","32, normal mg/kg"
same,Fecal calprotectin (<50 normal),"[3]; 24 Sep. 2014 (started 10.09.14), high","79, high mg/kg"
same,Partial Mayo score,"[3]; at 12 weeks, baseline 3",0
same,Disease activity score,"[4]; 21.11.14, degarelix after methotrexate stopped 03.10.14",5.7
same,Disease activity score,"[4]; 29.9.14, degarelix with methotrexate 10 mg weekly",5.1
same,ACR response achieved,"[4]; by 29.09.14 (start 16.06.14), with stable concomitant methotrexate and prednisolone",ACR60
same,BASDAI,[5]; at 4 months,1.5
same,BASDAI,[5]; by 2 weeks,2.9
same,BASDAI reduction,[5]; by 4 months,2.3
same,BASDAI,"[5]; by 8 weeks, remission",1.3
